From patent US6906205B2, “Spiro and dispiro 1,2,4-trioxolane antimalarials” (Medicines for Malaria Venture MMV, priority 2002, dated 2005)
Converted amounts (≈) assume the structure as drawn.

Legend:
[1] = system: P. falciparum K1 strain (Thailand resistant to chloroquine); experiment: semiautomated microdilution assay, [3H]-hypoxanthine incorporation, K1 strain; format: cell-based, Plasmodium falciparum; details: K1 strain, 72 h incubation
In short: (§1)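 Compounds were tested against intraerythrocytic parasites taken from asynchronous stock cultures, using semiautomated microdilution. IC50 values were estimated by logit regression analysis.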

[2] = system: P. falciparum NF54 strain (sensitive to standard antimalarials); experiment: semiautomated microdilution assay, [3H]-hypoxanthine incorporation, NF54 strain; format: cell-based, Plasmodium falciparum; details: NF54 strain, 72 h incubation
In short: as §1

[3] = system: ANKA strain of P. berghei; experiment: single dose STI in vivo screen in infected mice; set-up: species or system Plasmodium berghei; details: for Activity (%) po / Activity (%) sc / Activity (%) SSVpo: percent reduction in parasitemia day 3 post-infection, mice; for Activity (%) po / Survival (days) po: single 10 mg/kg po in 3% ethanol and 7% Tween 80; for Activity (%) sc / Survival (days) sc: single 10 mg/kg sc in 3% ethanol and 7% Tween 80; for Activity (%) SSVpo: single po dose in standard suspending vehicle (SSV); for Survival (days) po / Survival (days) sc / Survival (days) SSVpo: untreated control 5.6 ± 0.3; for Survival (days) SSVpo: single po dose in SSV
In short: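 Groups of 3-5 Moro SPF or NMRI mice infected with the ANKA strain of P. berghei received a single dose of trioxolane on day one post-infection. The compound was given in 3% ethanol and 7% Tween 80 or in SSV (0.5% w/v CMC, 0.5% v/v benzyl alcohol, 0.4% v/v Tween 80, 0.9% w/v sodium chloride in water). Antimalarial activity was scored as percent reduction in parasitemia on day three and as survival time versus untreated controls. Survival to day 30 counted as cure.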

| SMILES | IC50 (ng/ml) K1 [1] | IC50 (ng/ml) NF54 [2] | Activity (%) po [3] | Activity (%) sc [3] | Activity (%) SSVpo [3] | Survival (days) po [3] | Survival (days) sc [3] | Survival (days) SSVpo [3] |
| --- | --- | --- | --- | --- | --- | --- | --- | --- |
| N=C(N)N1CCC2(CC1)OOC1(O2)C2CC3CC(C2)CC1C3 (stereo not drawn) [OZ191] | 6.0 ng/mL (≈ 0.0195 µM) | > 10 ng/mL | 7% | 17% | 5% | 5.7 days | 6.0 days | 5.7 days |
| Fc1ccc(OC2CCC3(CC2)OOC2(O3)C3CC4CC(C3)CC2C4)cc1 (stereo not drawn) [OZ193] | 5.5 ng/mL (≈ 0.0147 µM) | 8.3 ng/mL (≈ 0.0222 µM) | 99.75% | 99.92% | 93% | 9.3 days | 11.0 days | 8.0 days |
| O=C(O)CCC(=O)N[C@H]1CC[C@]2(CC1)OOC1(O2)C2CC3CC(C2)CC1C3 (stereo partly drawn) [OZ196] | >10/>10 ng/ml | >10/>10 ng/ml | 10% | 17% | 0% | 6.0 days | 5.7 days | 5.3 days |
| O=C(O)c1cccc([C@H]2CC[C@]3(CC2)OOC2(O3)C3CC4CC(C3)CC2C4)c1 (stereo partly drawn) [OZ198] | >10/>10 ng/ml | >10/>10 ng/ml | 4% | 6% | 6% | 5.7 days | 5.7 days | 6.0 days |
| CCS(=O)(=O)CCN1CCC2(CC1)OOC1(O2)C2CC3CC(C2)CC1C3 (stereo not drawn) [OZ200] | 1.0 ng/mL (≈ 0.00259 µM) | 2.9 ng/mL (≈ 0.00752 µM) | 81% | 92% | 78% | 7.0 days | 8.0 days | 7.3 days |
| Fc1ccc(NC2CCC3(CC2)OOC2(O3)C3CC4CC(C3)CC2C4)cc1 (stereo not drawn) [OZ201] | 2.0 ng/mL (≈ 0.00536 µM) | 3.1 ng/mL (≈ 0.0083 µM) | 100/100/100% | 100/100/100% | 100/100/100% | 13 days | 25 days | 10.3 days |
| CC(=O)OC(C)(C)C(=O)N[C@H]1CC[C@]2(CC1)OOC1(O2)C2CC3CC(C2)CC1C3 (stereo partly drawn) [OZ202] | 6.0 ng/mL (≈ 0.0147 µM) | 7.9 ng/mL (≈ 0.0194 µM) | 79% | 74% | 51% | 7.0 days | 7.3 days | 7.3 days |
| O=C(N1CCCC1)N1CCC2(CC1)OOC1(O2)C2CC3CC(C2)CC1C3 (stereo not drawn) [OZ203] | 3.9 ng/mL (≈ 0.0108 µM) | 6.7 ng/mL (≈ 0.0185 µM) | 87% | 99.72% | 99.42% | 7.3 days | 9.7 days | 8.7 days |
| COC(=O)c1ccc(C[C@H]2CC[C@]3(CC2)OOC2(O3)C3CC4CC(C3)CC2C4)cc1 (stereo partly drawn) [OZ204] | >10/>10 ng/ml | >10/>10 ng/ml | 0/0/0% | 0/0/0% | 0/0/0% | 6.0 days | 6.0 days | 6.3 days |
| O=C1CNC(=O)N1C[C@H]1CC[C@]2(CC1)OOC1(O2)C2CC3CC(C2)CC1C3 (stereo partly drawn) [OZ206] | 1.0 ng/mL (≈ 0.00266 µM) | 2.7 ng/mL (≈ 0.00717 µM) | 93% | 91% | 92% | 8.0 days | 9.7 days | 8.7 days |
| CCOC(=O)c1cccc([C@H]2CC[C@]3(CC2)OOC2(O3)C3CC4CC(C3)CC2C4)c1 (stereo partly drawn) [OZ208] | 6.0 ng/mL (≈ 0.0145 µM) | 6.5 ng/mL (≈ 0.0158 µM) | 0% | 10% | 29% | 6.3 days | 5.7 days | 6.7 days |
| O=S(=O)(C[C@H]1CC[C@]2(CC1)OOC1(O2)C2CC3CC(C2)CC1C3)c1ccccc1 (stereo partly drawn) [OZ210] | 1.4 ng/mL (≈ 0.00334 µM) | 1.6 ng/mL (≈ 0.00382 µM) | 99.23% | 99.94% | 77% | 9.3 days | 10.3 days | 8.0 days |
